Assays:
lens = assay: In vivo model of cataract (chronic naphtalene treatment)
Experimental: (§1) We evaluated the effect of a treatment with inhibitors of Kyn-3OHase (Ro-618048) and of 2-(3,4-Dichloro-benzoyl)-cyclopropanecarboxylic acid (UPF-648, 50 mg/kg; ip) in an in vivo (chronic naphtalene treatment) and an in vitro models of cataract (culture lenses exposed to different insults).

culture lenses = assay: In vitro models of cataract (culture lenses exposed to different insults)
Experimental: as §1

glutamate release = details: KYNA 30-100 nM; without modifying ionotropic or metabotropic GLU receptor function; cited from earlier work
MTPP treated monkeys = details: NMDA antagonist in MTPP treated monkeys; cited from earlier work
6-OHDA lesioned rats = assay: Rotational response to chronic L-DOPA in 6-OHDA lesioned rats (wearing-off model); format: in vivo, rat
Experimental: In 6-OHDA lesioned rats, a commonly used model of PD, motor response to L-DOPA decreases after chronic treatment. This effect mimics the “wearing-off” phenomenon observed in parkinsonian patients under chronic treatment with L-DOPA (Boldry et al., Brain Res 1995 Sep. 18; 692: 259-64).
In this rat model we evaluated the effect of Ro-618048 (40 mg/kg; ip) and of 2-(3,4-Dichloro-benzoyl)-cyclopropanecarboxylic acid (UPF-648, 50 mg/kg; ip), on the rotational response to chronic L-DOPA (28 days treatment, […]; ip) in comparison to MK-801 (0.1 mg/kg; ip). […]
To measure rotational behavior, rats were placed in circular cages and tethered to an automated rotometer. The number of complete turns performed in each 5-min period was recorded by a computer. […]
Rats were injected intraperitoneally twice a day at 8:00 and 16:00 for 28 consecutive days with either a combination of L-DOPA methylester (50 mg/kg) and the peripheral decarboxylase inhibitor benserazide (12.5 mg/kg) or saline. […] The duration of the response was measured by the time between the first 5 min interval when the rate of turning attained half its eventual average value and the first interval when the rate again declined to half its average values.
Data were analyzed by analysis of variance followed by Duncan's new multiple range test for post-hoc comparisons.

Male Wistar rats = assay: Cocaine-induced behavioral sensitization (locomotor activity); format: in vivo, rat
Experimental: We evaluated the effect of Ro-618048 (40 mg/kg; ip) and of 2-(3,4-Dichloro-benzoyl)-cyclopropanecarboxylic acid (UPF-648, 50 mg/kg; ip) in a model of cocaine-induced behavioral sensitization in rat.
Male Wistar rats (Charles River, Kingston, N.Y.) weighing 200-250 g upon arrival were used. Locomotor activity was measured in sixteen identical metal wire hanging cages each measuring 36 cm (L)×25 cm (W)×20 cm (H). Each cage contained two sets of infrared emitter-detector photocells positioned along the long axis 1-cm above the grid floor and 8 cm from the front and back of the cage. Background noise was provided by a white noise generator. Movement within the cages produced photocell interruptions, which were automatically recorded by an IBM-compatible computer.
Animals were habituated to the locomotor activity chambers for 2-3 consecutive days before the experiment. Rats received 5 daily IP injections of cocaine (15 mg/kg) or saline and either the Kyn-3OHase inhibitor Ro-618048 (40 mg/kg ip) or its vehicle and locomotor activity was recorded for 3 hours. Ten days after the last injection of cocaine or saline (day 15), the animals were challenged with 15 mg/kg of cocaine in absence of Ro-618048 and locomotor activity was again monitored for 3 h. […]

[1] = test system: MPTP-treated cynomolgus (macaca fascicularis) monkeys; assay: L-DOPA induced dyskinesia model in parkinsonian monkeys; format: in vivo, cynomolgus monkey
Experimental: The studies were performed in five to six female MPTP-treated cynomolgus (macaca fascicularis) monkeys (weighing 2.9 to 5.0 kg) with a stable parkinsonian syndrome and reproducible dyskinesias to L-Dopa. The animals were handled in accordance with the National Institute of Health Guide for the Care and Use of Laboratory Animals and all procedures were approved by the Institutional Animal Care Committee of Laval University. They were housed separately in observation cages and exposed to a 12 hour light/dark cycle (lights on 6.0 a.m.-6.0 p.m.) in a temperature controlled room, 23±1° C. They were fed once daily in the afternoon with pellets and fruits, and had free access to water.
RO-618048 was administered alone and simultaneously with L-Dopa. In particular: • A) RO-618048 at increasing doses, 10, 30, 100 mg/kg was administered alone on three consecutive days and compared with vehicle administered before and after treatments. • B) RO-618048 at increasing doses, 10, 30, 100 mg/kg was given simultaneously with L-Dopa/benserazide on three consecutive days and compared with L-Dopa, which was also given on three consecutive days. During the interval between the treatments, to maintain priming, the animals received an oral treatment with L-Dopa/benserazide (100/25 mg; Prolopa.). Compounds
RO-618048 at increasing doses, 10, 30, 100 mg/kg was suspended in 0.1% (vol/vol) Tween 80/sterile water and homogenized in a glass homogeniser and mixed overnight until administration, as a homogeneous suspension. The maximum volume of drug suspension administered by oral gavage (p.o) at each increasing dose was 10, 20 and 40 ml respectively. As a control, a suspension of 0.1% (vol/vol) Tween 80/sterile water was administered p.o. (2 ml/kg). L-Dopa methyl ester (Sigma, St. Louis, Mo.); always together with benserazide 50 mg, (Hoffmann-La Roche, Montreal, Quebec), at doses ranging between 25 to 30 mg/kg (based on the threshold concentration for each animal) was dissolved in 1 ml of 0.9% sterile saline and administered s.c. alone or in combination with RO-618048.
The severity of dyskinesias was rated for the face, neck, trunk, arms and legs in the following way: None=0; Mild=1; Moderate=2; Severe=3, based on the assessment of the amplitude, interference with normal motor activity and the frequency of the abnormal movements, according to a scale which we have used in several published studies. The dyskinetic score obtained was the sum of the scores for all body segments for a maximal score of 21 points. The mean dyskinetic score for each animal has been calculated as the average of all the scores obtained for 3 hours or for the total duration of the effect of the drugs.
The mean Parkinsonian scores and also the mean dyskinetic scores obtained for each monkey, during 3 hours or the total duration of the effect of a given drug, were analysed using the nonparametric Friedman's test followed by multiple comparisons based on Friedman rank sums.

Wistar rats = assay: Tail flick test; format: in vivo, rat; details: 40 mg/kg ip, 90 min after administration; control 3.9±0.4 sec
Experimental: (§2) We evaluated the analgesic activity of Ro-618048 (40 mg/kg; ip) and of 2-(3,4-Dichloro-benzoyl)-cyclopropanecarboxylic acid (UPF-648, 50 mg/kg; ip) in animal models of inflammatory and neuropathic pain (formalin test in mice) as well as in acute pain test (tail flick in rats).
(§3) Adult male Wistar rats weighing 175-200 g, and Crl:CD-1 mice weighing 22-25 g at testing were used (Harlan-Nossan, Italy).
The tail flick test measures the thermal nociceptive threshold defined as the latency required to elicit a tail response to heat. The test was performed according to the method described by D'Amour and Smith (1941, J. Pharmacol. Exp. Ther. 72:74-79) using an analgesiometer (U. Basile, Italy). Rats were treated ip with the drug (Ro-618048 40 mg/kg) or vehicle and 90 min after, each animal was placed on a platform and the tail was exposed to a focused beam of radiant heat approximately 3 cm from the tip. The beam light intensity was adjusted to produce a reaction latency of 3-5 sec in control rats. The thermal nociceptive threshold was defined as the latency required to elicit a tail response. A 20 sec cut-off was used to prevent tissue damage.
Tail Flick Test. The latency was defined as the interval of time (sec) between the onset of the thermal stimulus and the flick of the tail. Data were evaluated by analysis of variance followed by Dunnett's t-test.

Crl:CD-1 mice = assay: Mice formalin test; format: in vivo, mouse; details: 40 mg/kg ip 15 min before formalin, p<0.05
Experimental: as §2, §3
The formalin test in mouse is a procedure used to model neurogenic inflammation and continuous pain (Shibata et al., 1989, Pain 38: 347-352) as well as some features of post-injury pain in man (Dallel et al., 1995, Pain. 61: 11-16).
According to a modified protocol from Rosland et al., (1990, Pain 42: 235-242) mice were injected subcutaneously (s.c.) with 20 μl of 2.7% solution of formalin into the plantar surface of left hindpaw and placed immediately into clear PVC observation chambers (23×12×13 cm). Pain behavior was quantified by counting the cumulative licking time (sec) of the injected paw. Measurements were taken during the early phase (0-5 min) and late phase (30-40 min) after formalin injection (Tjolsen et al., 1992, Pain 51: 5-17). […]
Mice Formalin test. […] Data were evaluated by analysis of variance followed by Dunnett's t-test.
The cumulative licking time (sec) of the injected paw was recorded during the early phase (0-5 min) and late phase (30-40 min) after formalin injection.

[2] = RO-618048 alone 10, 30, 100 mg/kg p.o., compared with vehicle

O=C(O)C1CC1C(=O)c1ccc(Cl)c(Cl)c1 (stereo not drawn) [UPF-648, 2-(3,4-Dichloro-benzoyl)-cyclopropanecarboxylic acid]
degree of opacification of the lens (lens): reduce the degree of opacification of the lens
degree of opacification of the lens (culture lenses): reduce the degree of opacification of the lens

O=C(O)c1cc(=O)c2ccccc2[nH]1 [KYNA, kynurenic acid]
glutamate release (glutamate release): strongly inhibits glutamate release

C[C@]12N[C@H](Cc3ccccc31)c1ccccc12 [MK801]
L-DOPA induced dyskinesia (MTPP treated monkeys): reduced L-DOPA induced dyskinesia
decreased rotational response to L-DOPA (duration) (6-OHDA lesioned rats; MK801 0.1 mg/kg ip, 29th day after 28 days L-DOPA): similar

COc1ccc(S(=O)(=O)Nc2nc(-c3cccc([N+](=O)[O-])c3)cs2)cc1OC [Ro-618048]
degree of opacification of the lens (lens): reduce the degree of opacification of the lens
increase of locomotor response to cocaine, fifth day vs first day (Male Wistar rats; Ro-618048 40 mg/kg IP with cocaine 15 mg/kg daily for 5 days, vehicle 20% higher): did not show any significant increase
increased locomotor activity response to cocaine challenge vs first day (Male Wistar rats; challenge cocaine 15 mg/kg ten days after last injection, without Ro-618048, pretreated 40 mg/kg IP, vehicle 30% higher): did not
reduction of dyskinetic response to L-Dopa ([1]; 30 mg/kg p.o. simultaneously with L-Dopa/benserazide (25 to 30 mg/kg)): about 20%
reduction of dyskinetic response to L-Dopa ([1]; 100 mg/kg p.o. simultaneously with L-Dopa/benserazide (25 to 30 mg/kg)): about 20%
Parkinsonian score [1, 2]: did not have any effect
locomotor activity [1, 2]: did not have any effect
effect on improvement of parkinsonism induced by L-Dopa ([1]; acute RO-618048 with L-Dopa): without any negative effect
decreased rotational response to L-DOPA (duration) (6-OHDA lesioned rats; Ro-618048 40 mg/kg ip, acute co-administration on 29th day after 28 days L-DOPA): reversed
tail flick response latency to noxious heat (Wistar rats): 6.1 ± 0.4 s
degree of opacification of the lens (culture lenses): reduce the degree of opacification of the lens
cumulative licking time, early phase (0-5 min) (Crl:CD-1 mice; control 106±4.39 sec): 75 ± 5.5 s
cumulative licking time, late phase (30-40 min) (Crl:CD-1 mice; control 123±12.8 sec): 68 ± 14.3 s

Reference: US20070112025A1, “Use of kynurenine-3-hydroxylase inhibitors for the preparation of medicaments for the treatment of l-dopa induced movement disorders, dyskinesias, drug addiction, pain and cataract” (priority 2003, published 2007)
